According to US20020119958A1, “Therapeutic agent for hyperlipidemia” (priority 2001, published 2002):

How the values were obtained:
FXR = molecular target: T1, FXR (Homo sapiens, UniProt Q96RI1); assay: CDCA-induced luciferase reporter gene transcription via FXR; format: cell-based; conditions: 293 or CV-1 cells treated with CDCA; compound A 0.1-10 μM
T1 construct: expressed in transfected cells; host or cells: 293 or CV-1
T1 sequence (Q96RI1 1-486): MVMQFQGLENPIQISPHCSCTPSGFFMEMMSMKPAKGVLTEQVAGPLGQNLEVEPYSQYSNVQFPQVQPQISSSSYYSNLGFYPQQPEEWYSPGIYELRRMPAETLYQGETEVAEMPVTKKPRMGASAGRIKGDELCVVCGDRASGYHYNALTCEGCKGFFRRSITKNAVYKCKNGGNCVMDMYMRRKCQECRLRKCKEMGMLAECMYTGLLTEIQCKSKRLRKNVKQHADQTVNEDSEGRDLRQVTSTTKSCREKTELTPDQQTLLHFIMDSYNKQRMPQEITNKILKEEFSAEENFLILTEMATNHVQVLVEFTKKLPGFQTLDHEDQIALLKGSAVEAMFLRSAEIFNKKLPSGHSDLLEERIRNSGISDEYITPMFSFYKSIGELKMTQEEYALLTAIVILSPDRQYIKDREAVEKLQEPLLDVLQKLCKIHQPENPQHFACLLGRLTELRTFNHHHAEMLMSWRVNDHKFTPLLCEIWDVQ
Procedure: (§1) A plasmid for compulsory expression of FXR, a luciferase reporter plasmid and a β-galactosidase expression plasmid for correction of gene transfer were introduced into cultured mammalian cells (293 or CV-1) by conventional methods. The cells after gene transfer were treated with CDCA and compound A. Cell lysates were prepared from the cells that underwent treatment with various concentrations of compound A (0.1-10 μM), and a luciferase activity (corrected based on β-galactosidase activity) in the cell lysate was expressed as an FXR dependent transcriptional activity. In the absence of a drug, the luciferase activity value upon activation with CDCA was taken as 100% and the value in the absence of a ligand was taken as 0%. For a test for comparison, a similar experiment was conducted using an LXR expression plasmid instead of the FXR expression plasmid.

HepG2 cells = assay: Excretion of bile acid from HepG2 cells; format: cell-based, human; conditions: compound A 1, 10 μM, 24 h
Procedure: The cultured HepG2 cells were plated in a 24-well culture dish at 1.5×10^5 cells/ml, 0.5 ml/well. Four days later, the medium was exchanged to a new one and ^14C-labeled cholesterol (18.5 kBq/well) was added, which was cultured for 24 h (bile acid in the cells was labeled thereby). After the culture, the medium was exchanged to a new one and compound A (final concentration 1, 10 μM) was added. After 24 hours of culture, the medium was recovered and the amount of bile acid excreted into the medium was measured to examine the influence of compound A on bile acid excretion. The amount of excreted bile acid was corrected based on the protein amount of the cell.

[1] = tested on: I-BABP gene expression in Caco-2 cells; assay: I-BABP mRNA in Caco-2 cells by Northern blot; format: cell-based, human; conditions: 100 μM CDCA, compound A at 10 μM
Procedure: The human colon carcinoma derived cell line, Caco-2, is a cell line differentiated like the small intestine and expresses the I-BABP gene. The I-BABP gene expression in Caco-2 cells is promoted by CDCA and an expression control system of I-BABP gene by FXR is considered to be also present in Caco-2 cells (Makishima, M. et al. Science 284, 1362-5 (1999)). Thus, an action on the I-BABP gene expression of compound A as an FXR antagonist was tested using Caco-2 cells.
The Caco-2 cells were cultured in the presence of 100 μM CDCA, and the expression of I-BABP gene was induced. Thereto was added compound A and changes in the I-BABP gene expression level were examined by measuring the amount of I-BABP mRNA by Northern blot analysis.

[2] = tested on: CYP7A gene expression in HepG2 cells; assay: CYP7A mRNA in HepG2 cells by quantitative RT-PCR; format: cell-based, human; conditions: CDCA 20 μM + compound A 10 μM, 37° C., 16 h
Procedure: (§2) The cultured HepG2 cells were treated under the following three conditions at 37° C. for 16 h.
(§3) 1) no treatment with CDCA, no treatment with compound A
(§4) 2) treatment with CDCA (20 μM), no treatment with compound A
3) treatment with CDCA (20 μM), treatment with compound A (10 μM)
RNA was prepared from the cells after the treatment and the amount of CYP7A mRNA contained in the RNA was measured by quantitative RT-PCR. For the quantitative RT-PCR, TaqMan One Step Gold reverse transcriptase PCR kit of Applied Biosystems/PerkinElmer was used. For quantification, the following primers (i)-(iii) derived from human CYP7A gene sequence were used.

[3] = Concentration in blood after single oral administration to hamster; format: in vivo; conditions: male, GS, single oral 100 mg/kg, serum
Procedure: The compound A was forcibly given to hamster by single oral administration and measured for shifts in the concentration in blood. The test conditions were as follows. animal: male GS hamster (purchased from Japan SLC), 9 weeks old administration liquid: 20 mg/ml 0.5% methylcellulose suspension diet: not fasted dose: 100 mg/5 ml/kg (p.o.) administration: forcible single oral administration using oral sound blood sampling time: 5, 15, 30, 60, 180, 360 min after administration serum preparation: blood was drawn from the orbital vein and centrifuged using a Separapid tube (coagulation promoting spitz tube containing serum separating agent) to give serum.
An internal standard substance (CV-5386, 0.1 μg) was added to serum (0.1 ml) and admixed. Methanol (0.3 ml) was added and the mixture was stirred. The mixture was centrifuged at 10,000 rpm (FORCE-7 Denver Instrument Company) for 2 min and the resulting supernatant was subjected to centrifugal filtration using Centricut. The obtained filtrate was analyzed by LC-ESI-MS/MS.

[4] = tested on: LXR (liver X receptor) ligand binding domain (LXR-LBD); assay: FRET assay with LXR-LBD instead of FXR-LBD (test for comparison); format: biochemical; conditions: up to 50 μM
Procedure: (§5) An Eu-labeled FXR ligand binding domain (FXR-LBD) and an APC-labeled coactivator SRC-1 were mixed to the final concentration of 10 nM and 100 nM, respectively, in a buffer [100 mM Hepes (pH 7.6), 0.125% CHAPS, 125 mM NaF] in the presence of ligand CDCA. Thereto were added various concentrations of compound A (1-50 μM), and the mixture was allowed to react at 4° C. for 12 h. After the reaction, it was exposed to an excitation light at 337 nm and the fluorescence at 665 nm and 620 nm was measured, based on which the fluorescence ratio of 665 nm/620 nm was taken as an FRET fluorescence intensity.
At a concentration of not less than 1 μM, compound A inhibited the binding between FXR-LBD and SRC-1 induced in the presence of CDCA (attenuation of FRET fluorescent intensity). For a test for comparison, a similar experiment was conducted using LXR (liver X receptor) ligand binding domain (LXR-LBD) instead of FXR-LBD.

[5] = tested on: CYP7A protein in HepG2 cells; assay: CYP7A protein in HepG2 cells by Western blot; format: cell-based, human; conditions: CDCA 20 μM, compound A 0.03-10 μM, 16 h
Procedure: as §2, §3, §4
3) treatment with CDCA (20 μM), treatment with compound A (0.03, 0.1, 0.3, 1, 3, 10 μM)
After the treatment, the cells were recovered and lysed in a lysis buffer (125 mM Tris HCl (pH 8.0), 2 mM CaCl2, 2% Triton X-100) to prepare a cell lysate. The cell lysate was fractionated by SDS-PAGE, and the protein was transferred onto a PVDF membrane. The CYP7A protein was detected by Western blot analysis using an anti CYP7A antibody and an HRP (horse-radish peroxidase) conjugated 2nd antibody.

[6] = molecular target: T2, FXR ligand binding domain (FXR-LBD) (Homo sapiens, UniProt Q96RI1); assay: FRET assay of CDCA-induced binding of FXR-LBD to coactivator SRC-1; format: biochemical; conditions: in the presence of CDCA; compound A 1-50 μM; 4° C., 12 h
T2 construct: GST
T2 sequence (Q96RI1 262-486 limits assumed): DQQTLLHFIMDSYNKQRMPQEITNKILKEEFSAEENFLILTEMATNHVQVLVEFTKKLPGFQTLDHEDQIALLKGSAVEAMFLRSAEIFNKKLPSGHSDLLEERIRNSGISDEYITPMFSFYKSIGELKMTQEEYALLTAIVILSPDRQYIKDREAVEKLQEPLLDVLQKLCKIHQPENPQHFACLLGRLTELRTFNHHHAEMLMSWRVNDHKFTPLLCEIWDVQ
Procedure: as §5

CYP7A gene = assay: Northern blot of CYP7A gene expression in hamster liver; format: in vivo; conditions: 14 days
Procedure: (§6) Male Syrian Golden Hamsters (7 weeks old) were purchased from Japan SLC and preliminarily reared for 2 weeks under a high fat diet load (10% coconut oil, 0.12% cholesterol). After the preliminary rearing, the high fat diet was fed to the hamsters while administering compound A. The drug was prepared into a 0.5% methylcellulose suspension, and forcibly administered orally at 30 or 100 mg/kg/day for 14 consecutive days. At 4, 7, 11 and 14 days from the drug administration, blood was drawn from the orbital vein of the animal and total serum cholesterol value was measured. As a control, a drug non-administration group was prepared and treated similarly, which was followed by measurement of the serum total cholesterol value. At the final day of the test, the liver and the ileum were removed from the animals, from which the total RNA was prepared.
(§7) The total RNA was prepared from animal tissues by AGPC method. The prepared total RNA was electrophoresed on an agarose gel containing 6% formaldehyde and transferred onto a nylon membrane by a capillary blotting method. This membrane was hybridized with ^32P-labeled hamster CYP7A or I-BABP probe in 50% formamide at 42° C. for 16 h and the amounts of CYP7A and I-BABP gene expressions were measured. The CYP7A and I-BABP probes were prepared by RT-PCR method from RNA derived from the liver and the ileum, respectively, of the hamsters.

[7] = Serum total cholesterol in hamsters on high fat diet; format: in vivo, hamster; conditions: 14 days, last day of the test
Procedure: as §6
The blood was drawn from the orbital vein of the animals and centrifuged (3000 rpm, 15 min) to prepare the serum. The total cholesterol concentration of the serum was determined by the enzyme method.

LXR = assay: Luciferase reporter gene transcription via LXR (test for comparison); format: cell-based; conditions: up to the concentration of 10 μM
Procedure: as §1

I-BABP gene = assay: Northern blot of I-BABP gene expression in hamster ileum; format: in vivo; conditions: 14 days
Procedure: as §6, §7

concentration at which FXR dependent transcription was repressed (FXR): not less than 1 μM
amount of CYP7A mRNA (no CDCA = 100, 20 μM CDCA = 0) [2]: 58
Cmax [3]: 2010 ng/mL
Tmax [3]: 6 h
effect on FRET fluorescent intensity with LXR-LBD [4]: did not affect the fluorescent intensity
CYP7A protein (Western blot) [5]: Accumulation of CYP7A protein
concentration at which the binding between FXR-LBD and SRC-1 was inhibited (attenuation of FRET fluorescent intensity) [6]: not less than 1 μM
SMILES: CC(C)(C)c1cc(C(C)(C)C)c(O)c(NC(=O)c2ccccc2)c1O [compound A, N-(3,5-di-tert-butyl-2,6-dihydroxyphenyl)benzamide]
excretion of bile acid into the medium (HepG2 cells): promoted the excretion of bile acid
mRNA level of I-BABP (Northern blot) [1]: marked decrease
increase in mRNA level of the CYP7A gene in the liver relative to the drug non-administration group (CYP7A gene; 30 mg/kg/day p.o.): 53%
increase in mRNA level of the CYP7A gene in the liver relative to the drug non-administration group (CYP7A gene; 100 mg/kg/day p.o.): 27%
percent decrease in serum total cholesterol relative to the drug non-administration group ([7]; 30 mg/kg/day p.o.): 28%
percent decrease in serum total cholesterol relative to the drug non-administration group ([7]; 100 mg/kg/day p.o.): 32%
effect on transcription activity dependent on LXR (LXR): did not influence the transcription activity
decrease in mRNA level of the I-BABP gene in the ileum relative to the drug non-administration group (I-BABP gene; 30 mg/kg/day p.o.): 11%
decrease in mRNA level of the I-BABP gene in the ileum relative to the drug non-administration group (I-BABP gene; 100 mg/kg/day p.o.): 16%
